Test results: patent US12540141B2, “Spiropyrrolidine derived antiviral agents” (priority 2020, dated 2026)

Target: SARS-CoV-2 3CL-protease (Severe acute respiratory syndrome coronavirus 2, UniProt P0DTD1)
Assay: SARS-CoV-2 3C-Like (3CL) Protease Fluorescence Assay (FRET)
Type: biochemical
Conditions: SARS-CoV-2 3CL-protease 10 nM, 30 min preincubation at RT, substrate 40 μM

SMILES | IC50
Cc1ccnc2[nH]c(C(=O)N(C)[C@@H](CC3CC3)C(=O)N3C[C@]4(C[C@H]3C#N)C(=O)Nc3ccc(Cl)cc34)cc12 [Example 460] | < 100 nM
[2H]C([2H])([2H])N(C(=O)c1cc(OC(F)(F)F)c2ncccc2c1)[C@@H](CC(C)(C)C)C(=O)N1C[C@]2(C[C@H]1C#N)C(=O)Nc1ccccc12 [Example 382] | < 100 nM
CC(C)C[C@@H](C(=O)N1C[C@]2(C[C@H]1C#N)C(=O)Nc1ccccc12)N(C)C(=O)c1cc(OC2CC2)c2nc(Cl)ccc2c1 [Example 310] | < 100 nM
CC(C)C[C@@H](C(=O)N1C[C@]2(C[C@H]1C#N)C(=O)Nc1ccccc12)N(C)C(=O)c1cnn(C(C)(C)C)c1 [Example 352] | < 100 nM
Cc1c(C(=O)N[C@@H](CC2CC2)C(=O)N2C[C@]3(C[C@H]2C#N)C(=O)Nc2ccc(Cl)cc23)sc2cccc(F)c12 [Example 519, N—((S)-1-((3R,5′S)-5-chloro-5′-cyano-2-oxospiro[indoline-3,3′-pyrrolidin]-1′-yl)-3-cyclopropyl-1-oxopropan-2-yl)-4-fluoro-3-methylbenzo[b]thiophene-2-carboxamide] | < 100 nM
CC(C)C[C@@H](C(=O)N1C[C@]2(C[C@H]1C#N)C(=O)Nc1ccccc12)N(C)C(=O)c1ccc2cccnc2c1O [Example 285] | 100 to 1000 nM
CC(C)C[C@@H](C(=O)N1C[C@]2(C[C@H]1C#N)C(=O)Nc1ccccc12)N(C)C(=O)c1cc(Cl)c2ncc(C3CC3)cc2c1 [Example 239] | 100 to 1000 nM
CC(C)C[C@@H](C(=O)N1C[C@]2(C[C@H]1C#N)C(=O)Nc1ccc(S(C)(=O)=O)cc12)N(C)C(=O)c1cc2c(F)cc(F)cc2[nH]1 [Example 500, N—((S)-1-((3R,5′S)-5′-cyano-5-(methylsulfonyl)-2-oxospiro[indoline-3,3′-pyrrolidin]-1′-yl)-4-methyl-1-oxopentan-2-yl)-4,6-difluoro-N-methyl-1H-indole-2-carboxamide] | < 100 nM
N#C[C@@H]1C[C@@]2(CN1C(=O)[C@H](CC1CC1)NC(=O)OCc1ccc(F)cc1F)C(=O)Nc1ccc(Cl)cc12 [Example 493] | < 100 nM
CN(C(=O)c1cn(C(C)(C)C)nn1)[C@@H](CC1CC1)C(=O)N1C[C@]2(C[C@H]1C#N)C(=O)Nc1ccccc12 [Example 402] | < 100 nM
COc1ccc(CN(C(=O)C(F)(F)F)[C@@H](CC(C)C)C(=O)N2C[C@]3(C[C@H]2C#N)C(=O)Nc2ccccc23)cc1 [Example 429] | > 1000 nM
CC(C)C[C@@H](C(=O)N1C[C@]2(C[C@H]1C#N)C(=O)Nc1ccccc12)N(C)C(=O)c1cc2ccc(=O)[nH]c2cc1OC1CC1 [Example 254] | < 100 nM
CN(C(=O)c1cc2cccnc2[nH]1)[C@@H](CC(C)(C)F)C(=O)N1C[C@]2(C[C@H]1C#N)C(=O)Nc1ccc(Cl)cc12 [Example 470] | < 100 nM
CC(C)C[C@@H](C(=O)N1C[C@]2(C[C@H]1C=O)C(=O)Nc1ccccc12)N(C)C(=O)c1cc2c(F)cc(F)c(F)c2[nH]1 [Example 150] | < 100 nM
CC(C)C[C@@H](C(=O)N1C[C@]2(C[C@H]1C#N)C(=O)Nc1ccccc12)N(C)C(=O)c1cc2cc(C(F)(F)F)cnc2[nH]1 [Example 488] | < 100 nM
Cc1cccc2c1[C@@]1(C[C@@H](C#N)N(C(=O)[C@H](CC(C)C)NC(=O)c3cc4c(F)cccc4[nH]3)C1)C(=O)N2 [Example 529] | 100 to 1000 nM
C[C@@H](CC(=O)N[C@@H](CC(C)(C)C)C(=O)N1C[C@]2(C[C@H]1C#N)C(=O)Nc1ccccc12)NC(=O)OCc1ccccc1 [Example 130] | 100 to 1000 nM
CC(C)C[C@@H](C(=O)N1C[C@]2(C[C@H]1C#N)C(=O)Nc1ccccc12)N(C)C(=O)c1cc2cncnc2[nH]1 [Example 489] | < 100 nM
Cc1cccc2[nH]c(C(=O)N(C)[C@@H](CC(C)C)C(=O)N3C[C@]4(C[C@H]3C#N)C(=O)Nc3ccccc34)nc12 [Example 252] | < 100 nM

SMILES | IC50
CCCC[C@H](NC(=O)[C@H](O)c1ccc(F)cc1)C(=O)N1C[C@]2(C[C@H]1C#N)C(=O)Nc1ccccc12 [Example 419] | < 100 nM
CC(C)C[C@H](NC(=O)c1cc2c(F)cccc2[nH]1)C(=O)N1C[C@]2(C[C@H]1C#N)C(=O)Nc1cc(F)ccc12 [Example 530] | < 100 nM
CC(C)C[C@@H](C(=O)N1C[C@]2(C[C@H]1C#N)C(=O)Nc1ccccc12)N(C)C(=O)c1ccc(Cl)cc1Cl [Example 168] | < 100 nM
CC(C)C[C@@H](C(=O)N1C[C@]2(C[C@H]1C=O)C(=O)Nc1ccccc12)N(C)C(=O)c1cc2c(F)cc(F)cc2[nH]1 [Example 149] | < 100 nM
CC(C)C[C@@H](C(=O)N1C[C@]2(C[C@H]1C#N)C(=O)Nc1ccccc12)N(C)C(=O)c1nc2c(F)cc(F)c(F)c2[nH]1 [Example 270] | < 100 nM
CC(C)C[C@@H](C(=O)N1C[C@]2(C[C@H]1C#N)C(=O)Nc1ccccc12)N(C(=O)OCc1ccccc1)C(C)C [Example 160] | > 1000 nM
CC(C)C[C@@H](C(=O)N1C[C@]2(C[C@H]1C#N)C(=O)Nc1ccc(-c3ccccn3)cc12)N(C)C(=O)c1cc2c(F)cc(F)cc2[nH]1 [Example 516] | < 100 nM
CC(C)(C)C[C@H](NC(=O)c1cn(C2CCC2)nn1)C(=O)N1C[C@]2(C[C@H]1C#N)C(=O)Nc1ccccc12 [Example 148] | < 100 nM
CC(C)(C)C[C@H](NC(=O)c1cn(-c2cccc(Cl)c2)nn1)C(=O)N1C[C@]2(C[C@H]1C#N)C(=O)Nc1ccccc12 [Example 142] | 100 to 1000 nM
CN(C(=O)c1cnn(C(C)(C)C)c1Cl)[C@@H](CC1CC1)C(=O)N1C[C@]2(C[C@H]1C#N)C(=O)Nc1ccccc12 [Example 409] | < 100 nM
Cc1cccc2c1NC(=O)[C@]21C[C@@H](C#N)N(C(=O)[C@H](CC(C)C)NC(=O)c2cc3c(F)cccc3[nH]2)C1 [Example 534] | < 100 nM
C[C@@H]1CCC[C@H](C)N1CCC(=O)N(C)[C@@H](CC(C)(C)F)C(=O)N1C[C@]2(C[C@H]1C#N)C(=O)Nc1ccccc12 [Example 545] | < 100 nM
CC(=O)C[C@@H](C(=O)N1C[C@]2(C[C@H]1C#N)C(=O)Nc1ccccc12)N(C)C(=O)c1cc2c(F)cc(F)cc2[nH]1 [Example 442] | < 100 nM
CC(C)C[C@@H](C(=O)N1C[C@]2(C[C@H]1C#N)C(=O)Nc1ccccc12)N(C)C(=O)c1ccnc2ccc(F)cc12 [Example 305] | < 100 nM
CC(C)C[C@@H](C(=O)N1C[C@]2(C[C@H]1C#N)C(=O)Nc1ccccc12)N(C)C(=O)c1cccc(-c2cccc(Cl)c2)c1 [Example 266] | 100 to 1000 nM
CC(C)C[C@@H](C(=O)N1C[C@]2(C[C@H]1C#N)C(=O)Nc1ccc(-c3ccn(C(F)F)n3)cc12)N(C)C(=O)c1cc2c(F)cc(F)cc2[nH]1 [Example 514] | < 100 nM
[2H]C([2H])([2H])N(C(=O)c1cn(C(C)(C)C)nn1)[C@@H](CCCC)C(=O)N1C[C@]2(C[C@H]1C#N)C(=O)Nc1ccccc12 [Example 393] | < 100 nM
CC(C)C[C@@H](C(=O)N1C[C@]2(C[C@H]1C#N)C(=O)Nc1ccccc12)N(C)C(=O)C[C@@H](Cc1cc(F)c(F)cc1F)NC(=O)OC(C)(C)C [Example 289] | < 100 nM
CC(C)C[C@@H](C(=O)N1C[C@]2(C[C@H]1C#N)C(=O)Nc1ccccc12)N(C)C(=O)c1cccc(N)n1 [Example 199] | 100 to 1000 nM

SMILES | IC50
CC(C)C[C@@H](C(=O)N1C[C@]2(C[C@H]1C#N)C(=O)Nc1ccccc12)N(C)C(=O)c1cc2ccccc2s1 [Example 207] | < 100 nM
C#CCOC[C@H](NC(=O)c1cc2c(OC)cccc2[nH]1)C(=O)N1C[C@]2(C[C@H]1C#N)C(=O)Nc1ccccc12 [Example 127] | < 100 nM
CN(C(=O)Cc1cnccn1)[C@@H](CC(C)(C)F)C(=O)N1C[C@]2(C[C@H]1C#N)C(=O)Nc1ccc(Cl)cc12 [Example 484] | < 100 nM
CN(C(=O)CCCN1CCOCC1)[C@@H](CC(C)(C)F)C(=O)N1C[C@]2(C[C@H]1C#N)C(=O)Nc1ccccc12 [Example 538] | > 1000 nM
CN(C(=O)C(F)(F)c1ccccn1)[C@@H](CC(C)(C)F)C(=O)N1C[C@]2(C[C@H]1C#N)C(=O)Nc1ccc(Cl)cc12 [Example 481] | < 100 nM
CC(C)C[C@@H](C(=O)N1C[C@]2(C[C@H]1C#N)C(=O)Nc1ccccc12)N(C)C(=O)c1ccc2cn[nH]c2c1 [Example 223] | 100 to 1000 nM
CN(C(=O)c1cc2ccncc2[nH]1)[C@@H](CC1CC1)C(=O)N1C[C@]2(C[C@H]1C#N)C(=O)Nc1ccc(Cl)cc12 [Example 458] | < 100 nM
CCCOC[C@H](NC(=O)c1cc2c(OC)cccc2[nH]1)C(=O)N1C[C@]2(C[C@H]1C#N)C(=O)Nc1ccccc12 [Example 126] | < 100 nM
CC(C)C[C@@H](C(=O)N1C[C@]2(C[C@H]1C#N)C(=O)Nc1ccc(Cl)cc12)N(C)C(=O)c1cc2cccnc2[nH]1 [Example 468] | < 100 nM
CC(C)C[C@@H](C(=O)N1C[C@]2(C[C@H]1C#N)C(=O)Nc1ccccc12)N(C)C(=O)c1ccn[nH]1 [Example 202] | 100 to 1000 nM
CC(C)(C)C[C@H](NC(=O)Nc1ccc2ccccc2c1)C(=O)N1C[C@]2(C[C@H]1C#N)C(=O)Nc1ccccc12 [Example 439] | 100 to 1000 nM
CC(C)C[C@@H](C(=O)N1C[C@]2(C[C@H]1C#N)C(=O)Nc1ccccc12)N(C)C(=O)c1cc2ccccc2o1 [Example 208] | < 100 nM
CC(C)C[C@@H](C(=O)N1C[C@]2(C[C@H]1C#N)C(=O)Nc1ccccc12)N(C)C(=O)C1(c2ccc3c(c2)OC(F)(F)O3)CC1 [Example 329] | < 100 nM
CC(=O)c1ccc2c(c1)[C@@]1(C[C@@H](C#N)N(C(=O)[C@H](CC(C)C)N(C)C(=O)c3cc4c(F)cc(F)cc4[nH]3)C1)C(=O)N2 [Example 499] | < 100 nM
CC(C)C[C@@H](C(=O)N1C[C@]2(C[C@H]1C#N)C(=O)Nc1ccccc12)N(C)C(=O)c1cc(Cl)c(F)cc1F [Example 171] | < 100 nM
CN(C(=O)c1cc2c(F)cc(F)cc2[nH]1)[C@@H](Cc1cccc(F)c1)C(=O)N1C[C@]2(C[C@H]1C#N)C(=O)Nc1ccccc12 [Example 389] | < 100 nM
CC(C)(C)C[C@H](NC(=O)c1ccc2ncc(C(F)(F)F)cc2c1)C(=O)N1C[C@]2(C[C@H]1C#N)C(=O)Nc1ccccc12 [Example 134] | 100 to 1000 nM
CC(C)C[C@@H](C(=O)N1C[C@]2(C[C@H]1C#N)C(=O)Nc1ccccc12)N(C)C(=O)c1ccc(F)c2ccccc12 [Example 221] | < 100 nM
